From US20240335431A1, “1-H-PYRROLO[2,3-c]PYRIDINE COMPOUNDS” (Acerta Pharma B.V., priority 2023, published 2024)
Read-outs that look alike come from different tables or passages of the source.

What was measured:
[1] = tested on: MV4;11 cells; assay: Proliferation assay, MV4;11 (CellTiter-Glo, 7 days); type: cell-based, human; settings: read-out: MV-4-11 IC50
Outline: (§1)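 Cells were seeded at line-specific low densities for linear growth, exposed to 3.16-fold serial compound dilutions at 0.1% DMSO, and incubated 7 days at 37 °C, 5% CO2. Viability was read by CellTiter-Glo 2.0 luminescence; IC50 came from one-site fits of % inhibition, normalized between DMSO-treated cells (100%) and a day-0 plate (0%).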

[2] = Human liver microsomes (HLMs) intrinsic clearance assay; type: in vitro ADME; settings: for microsomal CLint at 1 µM: pH 7.4, HLM CLint
[3] = tested on: HEL cells; assay: Proliferation assay, HEL control cell line (CellTiter-Glo, 7 days); type: cell-based, human
Outline: as §1

[4] = human, microsomes, 1 µM, pH 7.4

Structure (SMILES)	IC50 [1] [nM]	HLM CLint [2, 4] [µL/min/mg]	IC50 [3] [nM]	microsomal CLint at 1 µM ([2]; human, microsomes) [µL/min/mg]	IC50 ([3]; Homo sapiens, HEL, 168 h) [nM]	IC50 ([1]; Homo sapiens, MV4-11, 168 h) [nM]	HLM CLint ([2]; 1 mg/mL HLM, NADPH) [µL/min/mg]
Cc1c(C(=O)[C@@H]2CCN(C(=O)[C@H]3NC[C@@H]4C[C@@H]43)[C@@H](C)C2)c2ccncc2n1-c1ccc(F)cc1C(=O)N(CC(F)(F)F)C(C)C (single isomer, unassigned) [Example 53-3, 2-(3-((2R*,4S*)-1-((1S,2S,5R)-3-Azabicyclo[3.1.0]hexane-2-carbonyl)-2-methylpiperidine-4-carbonyl)-2-methyl-1H-pyrrolo[2,3-c]pyridin-1-yl)-5-fluoro-N-isopropyl-N-(2,2,2-trifluoroethyl)benzamide]	13	155	> 10000				
Cc1c(C(=O)C2CCN(C(=O)[C@H]3NC[C@@H]4C[C@@H]43)CC2)c2ccncc2n1-c1ccc(F)cc1C(=O)N(C(C)C)C(C)C (single isomer, unassigned) [Example 55-1]	1720			125	> 10000		
Cc1c(C(=O)C2CCN(C(=O)[C@H]3NC[C@@H]4C[C@@H]43)CC2)c2ccncc2n1-c1ccc(F)cc1C(=O)N(C(C)C)C(C)C (single isomer, unassigned) [Example 55-2]	31	194	> 10000				
Cc1c(C(=O)C2CCN(C(=O)[C@H]3NC[C@@H]4C[C@@H]43)CC2)c2ccncc2n1-c1ccc(F)cc1C(=O)N(C(C)C)[C@H](C)C(F)(F)F (single isomer, unassigned) [Example 57-1]				84	> 10000	51	
Cc1c(C(=O)C2CCN(C(=O)[C@@H]3CCC4(CC4)N3)CC2)c2ccncc2n1-c1ccc(F)cc1C(=O)N1[C@H](C)COC[C@H]1C (single isomer, unassigned) [Example 58-2]			> 10000			35	85
CC(C)N(C(=O)c1cc(F)ccc1-n1cc(C(=O)[C@H]2CCN(C[C@H]3CC[C@H](NS(C)(=O)=O)CC3)C2)c2ccncc21)C(C)C [Example 1, 5-Fluoro-N,N-diisopropyl-2-(3-((S)-1-(((1r,4S)-4-(methylsulfonamido)-cyclohexyl)methyl)pyrrolidine-3-carbonyl)-1H-pyrrolo[2,3-c]pyridin-1-yl)benzamide]				178	> 10000	166	
CC(C)N(C(=O)c1cc(F)ccc1-n1cc(C(=O)[C@H]2CCN(C(=O)[C@H]3N[C@@H]4CC[C@H]3C4)C2)c2ccncc21)C(C)C [Example 2, 2-(3-((S)-1-((1R,3S,4S)-2-Azabicyclo[2.2.1]heptane-3-carbonyl)pyrrolidine-3-carbonyl)-1H-pyrrolo[2,3-c]pyridin-1-yl)-5-fluoro-N,N-diisopropylbenzamide]				43	> 10000	97	
CC(C)N(C(=O)c1cc(F)ccc1-n1cc(C(=O)[C@@H]2CCN(C(=O)[C@H]3N[C@@H]4CC[C@H]3C4)C2)c2ccncc21)C(C)C [Example 3, 2-(3-((R)-1-((1R,3S,4S)-2-Azabicyclo[2.2.1]heptane-3-carbonyl)pyrrolidine-3-carbonyl)-1H-pyrrolo[2,3-c]pyridin-1-yl)-5-fluoro-N,N-diisopropylbenzamide]				41	> 10000	99	
CC(C)N(C(=O)c1cc(F)ccc1-n1cc(C(=O)[C@@H]2CCN(C[C@H]3CC[C@H](NS(C)(=O)=O)CC3)C2)c2ccncc21)C(C)C [Example 4, 5-Fluoro-N,N-diisopropyl-2-(3-((R)-1-(((1r,4R)-4-(methylsulfonamido)-cyclohexyl)methyl)pyrrolidine-3-carbonyl)-1H-pyrrolo[2,3-c]pyridin-1-yl)benzamide]				171	> 10000	132	
CC(C)N(C(=O)c1cc(F)ccc1-n1cc(C(=O)C2CN(C(=O)[C@H]3N[C@@H]4CC[C@H]3C4)C2)c2ccncc21)C(C)C [Example 5, 2-(3-(1-((1R,3S,4S)-2-Azabicyclo[2.2.1]heptane-3-carbonyl)azetidine-3-carbonyl)-1H-pyrrolo[2,3-c]pyridin-1-yl)-5-fluoro-N,N-diisopropylbenzamide]				35	> 10000	85	
CC(C)N(C(=O)c1cc(F)ccc1-n1cc(C(=O)C2CN(C(=O)[C@H]3NC4CCC3CC4)C2)c2ccncc21)C(C)C [Example 6, (S)-2-(3-(1-(2-Azabicyclo[2.2.2]octane-3-carbonyl)azetidine-3-carbonyl)-1H-pyrrolo[2,3-c]pyridin-1-yl)-5-fluoro-N,N-diisopropylbenzamide]				40	> 10000	46	
CC(C)N(C(=O)c1cc(F)ccc1-n1cc(C(=O)C2CN(C(=O)[C@H]3N[C@H]4C[C@@H]3[C@@H](F)C4)C2)c2ccncc21)C(C)C [Example 7, 5-Fluoro-2-(3-(1-((1S,3S,4S,5S)-5-fluoro-2-azabicyclo[2.2.1]heptane-3-carbonyl)azetidine-3-carbonyl)-1H-pyrrolo[2,3-c]pyridin-1-yl)-N,N-diisopropylbenzamide]				148	> 10000	72	
CCN(C(=O)c1cc(F)ccc1-n1cc(C(=O)C2CN(C(=O)[C@H]3N[C@@H]4CC[C@H]3C4)C2)c2ccncc21)C(C)C [Example 8, 2-(3-(1-((1R,3S,4S)-2-Azabicyclo[2.2.1]heptane-3-carbonyl)azetidine-3-carbonyl)-1H-pyrrolo[2,3-c]pyridin-1-yl)-N-ethyl-5-fluoro-N-isopropylbenzamide]				21	> 10000	100	
CCN(C(=O)c1cc(F)ccc1-n1cc(C(=O)C2CN(C(=O)[C@H]3NC4CCC3CC4)C2)c2ccncc21)C(C)C [Example 9, (S)-2-(3-(1-(2-Azabicyclo[2.2.2]octane-3-carbonyl)azetidine-3-carbonyl)-1H-pyrrolo[2,3-c]pyridin-1-yl)-N-ethyl-5-fluoro-N-isopropylbenzamide]				27	> 10000	100	
CC(C)c1ncccc1-c1cc(F)ccc1-n1cc(C(=O)C2CN(C(=O)[C@H]3N[C@@H]4CC[C@H]3C4)C2)c2ccncc21 [Example 10, (1-((1R,3S,4S)-2-Azabicyclo[2.2.1]heptane-3-carbonyl)azetidin-3-yl)(1-(4-fluoro-2-(2-isopropylpyridin-3-yl)phenyl)-1H-pyrrolo[2,3-c]pyridin-3-yl)methanone]				182	> 10000	24	
CC(C)c1cnccc1-c1cc(F)ccc1-n1cc(C(=O)C2CN(C(=O)[C@H]3N[C@@H]4CC[C@H]3C4)C2)c2ccncc21.O=CO [Example 11, (1-((1R,3S,4S)-2-Azabicyclo[2.2.1]heptane-3-carbonyl)azetidin-3-yl)(1-(4-fluoro-2-(3-isopropylpyridin-4-yl)phenyl)-1H-pyrrolo[2,3-c]pyridin-3-yl)methanone 1·formic acid]				> 294	> 10000	31	
CC(C)(F)c1ncccc1-c1cc(F)ccc1-n1cc(C(=O)C2CN(C(=O)[C@H]3N[C@@H]4CC[C@H]3C4)C2)c2ccncc21 [Example 13, (1-((1R,3S,4S)-2-Azabicyclo[2.2.1]heptane-3-carbonyl)azetidin-3-yl)(1-(4-fluoro-2-(2-(2-fluoropropan-2-yl)pyridin-3-yl)phenyl)-1H-pyrrolo[2,3-c]pyridin-3-yl)methanone]				119	> 10000	34	
CC(C)N(C(=O)c1cc(F)ccc1-n1cc(C(=O)C2CN(C(=O)[C@H]3N[C@@H]4CC[C@H]3C4)C2)c2ccnc(F)c21)C(C)C [Example 15, 2-(3-(1-((1R,3S,4S)-2-Azabicyclo[2.2.1]heptane-3-carbonyl)azetidine-3-carbonyl)-7-fluoro-1H-pyrrolo[2,3-c]pyridin-1-yl)-5-fluoro-N,N-diisopropylbenzamide]				132	> 10000	53	
CC(C)N(C(=O)c1cc(F)ccc1-n1cc(C(=O)C2CCN(C(=O)[C@H]3N[C@@H]4CC[C@H]3C4)CC2)c2ccncc21)C(C)C [Example 16, 2-(3-(1-((1R,3S,4S)-2-Azabicyclo[2.2.1]heptane-3-carbonyl)piperidine-4-carbonyl)-1H-pyrrolo[2,3-c]pyridin-1-yl)-5-fluoro-N,N-diisopropylbenzamide]				27	> 10000	29	
CC(C)N(C(=O)c1cc(F)ccc1-n1cc(C(=O)C2CCN(C[C@H]3CC[C@H](NS(C)(=O)=O)CC3)CC2)c2ccncc21)C(C)C [Example 17, 5-Fluoro-N,N-diisopropyl-2-(3-(1-(((1r,4r)-4-(methylsulfonamido)cyclohexyl)-methyl)piperidine-4-carbonyl)-1H-pyrrolo[2,3-c]pyridin-1-yl)benzamide]				52	> 10000	320	
C=C1C[C@@H]2CC[C@H]1[C@@H](C(=O)N1CCC(C(=O)c3cn(-c4ccc(F)cc4C(=O)N(C(C)C)C(C)C)c4cnccc34)CC1)N2 [Example 18, 5-Fluoro-N,N-diisopropyl-2-(3-(1-((1S,3S,4R)-5-methylene-2-azabicyclo[2.2.2]-octane-3-carbonyl)piperidine-4-carbonyl)-1H-pyrrolo[2,3-c]pyridin-1-yl)benzamide]				172	> 10000	44	
CC(C)N(C(=O)c1cc(F)ccc1-n1cc(C(=O)C2CCN(C(=O)[C@H]3NC[C@@H]4C[C@@H]43)CC2)c2ccncc21)C(C)C [Example 19, 2-(3-(1-((1S,2S,5R)-3-Azabicyclo[3.1.0]hexane-2-carbonyl)piperidine-4-carbonyl)-1H-pyrrolo[2,3-c]pyridin-1-yl)-5-fluoro-N,N-diisopropylbenzamide]				56	> 10000	25	
